Measurements from doi:10.1101/2020.06.11.145995v1 (biorxiv, 2020).
Read-outs that look alike come from different tables or passages of the source.

Experiments:
Test in all cases: biochemical
ACVRL1 = ACVRL1 (Homo sapiens, UniProt P37023)
LKB1 = LKB1 (Homo sapiens, UniProt Q15831)
CAMK4 = CAMK4 (Homo sapiens, UniProt Q16566)
CAMK2A = CAMK2A (Homo sapiens, UniProt Q9UQM7)
CDC2L2 = CDC2L2 (Homo sapiens, UniProt Q9UQ88)
LATS2 = LATS2 (Homo sapiens, UniProt Q9NRM7)
MAP3K2 = MAP3K2 (Homo sapiens, UniProt Q9Y2U5)
DDR1 = DDR1 (Homo sapiens, UniProt Q08345)
AXL = AXL (Homo sapiens, UniProt P30530)
CDK9 = CDK9 (Homo sapiens, UniProt P50750)
ADCK3 = ADCK3 (Homo sapiens, UniProt Q8NI60)
FRK = FRK (Homo sapiens, UniProt P42685)
DCAMKL2 = DCAMKL2 (Homo sapiens, UniProt Q8N568)
FYN = FYN (Homo sapiens, UniProt P06241)
HPK1 = HPK1 (Homo sapiens, UniProt Q92918)
FLT4 = FLT4 (Homo sapiens, UniProt P35916)
ACVR1 = ACVR1 (Homo sapiens, UniProt Q04771)
CDKL2 = CDKL2 (Homo sapiens, UniProt Q92772)
KIT(D816V) = KIT(D816V) (Homo sapiens, UniProt P10721, D816V)
ALK = ALK (Homo sapiens, UniProt Q9UM73)
MST3 = MST3 (Homo sapiens, UniProt Q9Y6E0)
FGFR3 = FGFR3 (Homo sapiens, UniProt P22607)
CLK1 = CLK1 (Homo sapiens, UniProt P49759)
MEK1 = MEK1 (Homo sapiens, UniProt Q02750)
JNK2 = JNK2 (Homo sapiens, UniProt P45984)
DAPK2 = DAPK2 (Homo sapiens, UniProt Q9UIK4)
TXK = TXK (Homo sapiens, UniProt P42681)
PHKG1 = PHKG1 (Homo sapiens, UniProt Q16816)
ROS1 = ROS1 (Homo sapiens, UniProt P08922)
WEE2 = WEE2 (Homo sapiens, UniProt P0C1S8)
[1] = read-out: CPT-1-70-1 (1uM) % control
[2] = read-out: CPT-1-70-1 (1μM) % control
[3] = read-out: HYJ-2-002-1 (1uM) % control
[4] = read-out: HYJ-2-002-1 (1μM) % control

Chain of LATS2 (Q9NRM7 whole entry): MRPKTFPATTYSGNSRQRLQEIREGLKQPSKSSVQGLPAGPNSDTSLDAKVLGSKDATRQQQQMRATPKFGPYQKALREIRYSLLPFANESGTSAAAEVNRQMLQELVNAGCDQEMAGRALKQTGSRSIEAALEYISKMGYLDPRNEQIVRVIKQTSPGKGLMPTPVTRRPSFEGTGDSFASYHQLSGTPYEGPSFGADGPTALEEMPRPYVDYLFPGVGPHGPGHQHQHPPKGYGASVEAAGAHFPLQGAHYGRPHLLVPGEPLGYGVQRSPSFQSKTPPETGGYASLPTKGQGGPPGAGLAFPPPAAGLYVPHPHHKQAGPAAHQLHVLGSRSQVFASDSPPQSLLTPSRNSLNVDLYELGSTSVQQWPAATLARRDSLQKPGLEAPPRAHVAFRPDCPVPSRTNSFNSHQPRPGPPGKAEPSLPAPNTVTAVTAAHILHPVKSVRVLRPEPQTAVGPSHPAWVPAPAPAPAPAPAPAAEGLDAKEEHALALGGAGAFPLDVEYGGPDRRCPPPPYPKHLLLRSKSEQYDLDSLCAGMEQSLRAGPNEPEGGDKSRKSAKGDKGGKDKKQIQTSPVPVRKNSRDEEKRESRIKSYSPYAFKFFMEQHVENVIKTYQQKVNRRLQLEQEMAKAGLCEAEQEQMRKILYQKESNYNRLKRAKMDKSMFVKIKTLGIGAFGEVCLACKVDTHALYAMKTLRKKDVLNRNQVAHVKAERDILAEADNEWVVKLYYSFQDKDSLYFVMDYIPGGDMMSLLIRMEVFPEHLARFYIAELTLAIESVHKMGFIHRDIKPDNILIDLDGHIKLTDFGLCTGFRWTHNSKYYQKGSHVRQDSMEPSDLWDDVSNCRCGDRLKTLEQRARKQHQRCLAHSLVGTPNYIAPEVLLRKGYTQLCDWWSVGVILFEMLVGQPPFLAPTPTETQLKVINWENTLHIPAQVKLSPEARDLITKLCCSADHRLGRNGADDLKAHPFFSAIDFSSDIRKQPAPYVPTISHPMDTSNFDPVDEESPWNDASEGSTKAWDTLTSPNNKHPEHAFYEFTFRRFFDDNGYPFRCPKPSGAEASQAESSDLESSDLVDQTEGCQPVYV
Chain of WEE2 (P0C1S8 whole entry): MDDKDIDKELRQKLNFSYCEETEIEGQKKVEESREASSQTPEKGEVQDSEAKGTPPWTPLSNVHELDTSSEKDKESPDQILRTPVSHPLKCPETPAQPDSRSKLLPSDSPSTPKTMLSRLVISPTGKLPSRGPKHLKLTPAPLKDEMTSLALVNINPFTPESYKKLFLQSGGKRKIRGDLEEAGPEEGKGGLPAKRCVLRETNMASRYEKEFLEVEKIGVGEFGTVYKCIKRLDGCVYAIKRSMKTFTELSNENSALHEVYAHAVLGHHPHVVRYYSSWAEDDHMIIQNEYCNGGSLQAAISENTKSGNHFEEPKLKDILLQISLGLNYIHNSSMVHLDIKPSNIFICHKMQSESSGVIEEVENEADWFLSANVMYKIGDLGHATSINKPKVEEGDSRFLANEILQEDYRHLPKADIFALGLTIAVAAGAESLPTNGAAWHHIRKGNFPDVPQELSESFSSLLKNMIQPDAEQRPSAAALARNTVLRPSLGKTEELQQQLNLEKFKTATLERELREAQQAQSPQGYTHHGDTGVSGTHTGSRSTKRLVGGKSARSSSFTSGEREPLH
Chain of CDK9 (P50750 whole entry): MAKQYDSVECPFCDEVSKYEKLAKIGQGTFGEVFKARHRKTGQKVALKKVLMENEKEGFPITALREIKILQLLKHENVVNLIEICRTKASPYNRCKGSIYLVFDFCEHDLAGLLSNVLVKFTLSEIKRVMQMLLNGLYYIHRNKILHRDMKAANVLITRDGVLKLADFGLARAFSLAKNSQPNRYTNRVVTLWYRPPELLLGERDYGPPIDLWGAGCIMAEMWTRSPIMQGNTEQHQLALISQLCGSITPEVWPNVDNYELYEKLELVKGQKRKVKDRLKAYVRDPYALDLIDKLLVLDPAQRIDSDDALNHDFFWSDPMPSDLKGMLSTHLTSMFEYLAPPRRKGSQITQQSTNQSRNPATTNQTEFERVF
Chain of ACVR1 (Q04771 whole entry): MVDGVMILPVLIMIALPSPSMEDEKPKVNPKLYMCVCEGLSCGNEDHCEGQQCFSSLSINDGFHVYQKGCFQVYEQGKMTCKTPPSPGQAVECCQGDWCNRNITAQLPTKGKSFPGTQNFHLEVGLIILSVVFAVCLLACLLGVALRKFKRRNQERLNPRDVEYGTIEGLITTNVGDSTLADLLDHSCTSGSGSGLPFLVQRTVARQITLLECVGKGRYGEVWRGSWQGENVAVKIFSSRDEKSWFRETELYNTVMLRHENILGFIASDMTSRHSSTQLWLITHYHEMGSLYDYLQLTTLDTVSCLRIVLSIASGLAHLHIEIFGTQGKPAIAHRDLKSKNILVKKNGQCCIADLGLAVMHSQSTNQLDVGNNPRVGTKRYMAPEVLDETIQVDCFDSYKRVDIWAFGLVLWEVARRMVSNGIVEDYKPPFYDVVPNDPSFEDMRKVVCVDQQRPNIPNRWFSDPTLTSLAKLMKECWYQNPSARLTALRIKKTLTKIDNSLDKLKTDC
Chain of CDKL2 (Q92772 whole entry): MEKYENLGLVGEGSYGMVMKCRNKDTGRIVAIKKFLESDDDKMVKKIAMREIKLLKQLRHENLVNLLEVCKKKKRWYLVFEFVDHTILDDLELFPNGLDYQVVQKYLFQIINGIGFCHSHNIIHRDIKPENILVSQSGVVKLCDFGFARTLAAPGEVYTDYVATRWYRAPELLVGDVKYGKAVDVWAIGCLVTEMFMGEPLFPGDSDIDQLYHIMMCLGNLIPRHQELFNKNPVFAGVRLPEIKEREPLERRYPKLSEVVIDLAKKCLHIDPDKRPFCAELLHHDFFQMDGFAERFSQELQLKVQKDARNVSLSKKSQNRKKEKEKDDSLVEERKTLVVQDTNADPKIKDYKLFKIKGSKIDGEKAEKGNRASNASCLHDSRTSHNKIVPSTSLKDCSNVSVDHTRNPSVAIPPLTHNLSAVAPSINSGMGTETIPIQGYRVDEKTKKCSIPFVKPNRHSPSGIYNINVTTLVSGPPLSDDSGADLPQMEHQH
Chain of CDC2L2 (Q9UQ88 whole entry): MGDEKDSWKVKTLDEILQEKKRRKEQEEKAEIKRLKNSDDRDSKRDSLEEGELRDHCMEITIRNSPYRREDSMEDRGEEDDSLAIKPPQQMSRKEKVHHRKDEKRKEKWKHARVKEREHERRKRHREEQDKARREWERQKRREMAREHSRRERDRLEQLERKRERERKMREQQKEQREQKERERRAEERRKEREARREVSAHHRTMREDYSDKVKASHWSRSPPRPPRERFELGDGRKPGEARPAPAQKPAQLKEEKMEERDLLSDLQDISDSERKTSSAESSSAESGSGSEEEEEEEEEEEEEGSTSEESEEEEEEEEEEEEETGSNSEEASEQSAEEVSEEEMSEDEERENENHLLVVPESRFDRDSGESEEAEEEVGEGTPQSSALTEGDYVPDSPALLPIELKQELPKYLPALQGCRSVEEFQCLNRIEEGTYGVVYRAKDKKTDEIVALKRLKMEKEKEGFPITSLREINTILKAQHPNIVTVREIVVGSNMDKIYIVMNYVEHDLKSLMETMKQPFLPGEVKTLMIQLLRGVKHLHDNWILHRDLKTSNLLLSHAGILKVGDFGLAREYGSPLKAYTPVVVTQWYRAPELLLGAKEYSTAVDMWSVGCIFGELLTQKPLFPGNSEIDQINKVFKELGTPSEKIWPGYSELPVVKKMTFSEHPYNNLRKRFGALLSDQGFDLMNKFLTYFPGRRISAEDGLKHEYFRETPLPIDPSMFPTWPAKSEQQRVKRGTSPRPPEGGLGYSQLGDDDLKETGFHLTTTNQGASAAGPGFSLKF
Chain of CAMK4 (Q16566 whole entry): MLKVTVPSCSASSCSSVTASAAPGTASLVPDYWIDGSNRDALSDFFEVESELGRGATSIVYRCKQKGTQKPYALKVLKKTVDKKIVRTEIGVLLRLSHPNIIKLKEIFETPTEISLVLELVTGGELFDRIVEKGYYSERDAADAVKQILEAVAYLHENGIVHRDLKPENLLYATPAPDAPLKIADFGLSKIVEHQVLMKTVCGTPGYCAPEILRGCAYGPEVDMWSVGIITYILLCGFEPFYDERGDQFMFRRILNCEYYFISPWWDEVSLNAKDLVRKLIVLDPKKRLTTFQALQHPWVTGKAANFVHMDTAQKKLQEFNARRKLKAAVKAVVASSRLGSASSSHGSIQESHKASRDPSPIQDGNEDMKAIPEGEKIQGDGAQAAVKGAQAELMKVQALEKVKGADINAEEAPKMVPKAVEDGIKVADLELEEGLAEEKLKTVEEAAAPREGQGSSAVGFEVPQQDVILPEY
Chain of JNK2 (P45984 whole entry): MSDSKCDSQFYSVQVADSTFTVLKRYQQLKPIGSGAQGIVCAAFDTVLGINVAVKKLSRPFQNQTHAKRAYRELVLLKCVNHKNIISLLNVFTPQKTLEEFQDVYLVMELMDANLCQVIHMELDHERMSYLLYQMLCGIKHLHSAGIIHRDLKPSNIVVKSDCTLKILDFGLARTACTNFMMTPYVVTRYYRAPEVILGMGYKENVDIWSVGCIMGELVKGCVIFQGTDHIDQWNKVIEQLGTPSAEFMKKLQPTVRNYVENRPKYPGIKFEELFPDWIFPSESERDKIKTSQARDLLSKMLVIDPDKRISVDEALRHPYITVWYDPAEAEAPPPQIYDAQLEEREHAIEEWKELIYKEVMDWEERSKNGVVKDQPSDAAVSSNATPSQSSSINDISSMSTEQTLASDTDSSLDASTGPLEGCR

CN1CCN(c2ccc(Nc3nc(Oc4ccc(NC(=O)CCl)cc4)c4cc[nH]c4n3)cc2)CC1 [CPT1-70-1]
remaining activity at 1 µM (ACVRL1; [1]): 100% | remaining activity at 1 µM (LKB1; [1]): 76% | remaining activity at 1 µM (CAMK4; [1]): 100% | remaining activity at 1 µM (CAMK2A; [1]): 95% | remaining activity at 1 µM (CDC2L2; [1]): 100% | remaining activity at 1 µM (LATS2; [1]): 40% | remaining activity at 1 µM (MAP3K2; [1]): 37% | remaining activity at 1 µM (DDR1; [1]): 79% | remaining activity at 1 µM (AXL; [1]): 4.8% | remaining activity at 1 µM (CDK9; [1]): 90% | remaining activity at 1 µM (ADCK3; [1]): 100% | remaining activity at 1 µM (FRK; [1]): 100% | remaining activity at 1 µM (DCAMKL2; [1]): 92% | remaining activity at 1 µM (FYN; [1]): 90% | remaining activity at 1 µM (HPK1; [1]): 13% | remaining activity at 1 µM (FLT4; [1]): 81% | remaining activity at 1 µM (ACVR1; [1]): 100% | remaining activity at 1 µM (CDKL2; [1]): 11% | remaining activity at 1 µM (KIT(D816V); [1]): 60% | remaining activity at 1 µM (ALK; [1]): 38% | remaining activity at 1 µM (MST3; [1]): 93% | remaining activity at 1 µM (FGFR3; [1]): 35% | remaining activity at 1 µM (CLK1; [1]): 5.8% | remaining activity at 1 µM (MEK1; [1]): 51% | remaining activity at 1 µM (JNK2; [1]): 13% | remaining activity at 1 µM (DAPK2; [1]): 88% | remaining activity at 1 µM (TXK; [2]): 4.6% | remaining activity at 1 µM (PHKG1; [2]): 100% | remaining activity at 1 µM (ROS1; [2]): 100% | remaining activity at 1 µM (WEE2; [2]): 100%

CCN1CCN(Cc2ccc(NC(=O)c3ccc(C)c(CCc4cnc5[nH]ccc5c4OC)c3)cc2C(F)(F)F)CC1 [HYJ-2-002-1]
remaining activity at 1 µM (ACVRL1; [3]): 100% | remaining activity at 1 µM (LKB1; [3]): 100% | remaining activity at 1 µM (CAMK4; [3]): 100% | remaining activity at 1 µM (CAMK2A; [3]): 100% | remaining activity at 1 µM (CDC2L2; [3]): 76% | remaining activity at 1 µM (LATS2; [3]): 98% | remaining activity at 1 µM (MAP3K2; [3]): 26% | remaining activity at 1 µM (DDR1; [3]): 0% | remaining activity at 1 µM (AXL; [3]): 21% | remaining activity at 1 µM (CDK9; [3]): 100% | remaining activity at 1 µM (ADCK3; [3]): 100% | remaining activity at 1 µM (FRK; [3]): 1.4% | remaining activity at 1 µM (DCAMKL2; [3]): 100% | remaining activity at 1 µM (FYN; [3]): 2.2% | remaining activity at 1 µM (HPK1; [3]): 3.4% | remaining activity at 1 µM (FLT4; [3]): 3.8% | remaining activity at 1 µM (ACVR1; [3]): 100% | remaining activity at 1 µM (CDKL2; [3]): 2.3% | remaining activity at 1 µM (KIT(D816V); [3]): 9.2% | remaining activity at 1 µM (ALK; [3]): 75% | remaining activity at 1 µM (MST3; [3]): 76% | remaining activity at 1 µM (FGFR3; [3]): 28% | remaining activity at 1 µM (CLK1; [3]): 57% | remaining activity at 1 µM (MEK1; [3]): 100% | remaining activity at 1 µM (JNK2; [3]): 1.8% | remaining activity at 1 µM (DAPK2; [3]): 92% | remaining activity at 1 µM (TXK; [4]): 2.1% | remaining activity at 1 µM (PHKG1; [4]): 100% | remaining activity at 1 µM (ROS1; [4]): 100% | remaining activity at 1 µM (WEE2; [4]): 21%
